Results reported in PubChem BioAssay (NCI).
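Cultured in 96-well plates, cells were exposed to test compound for 48 hours across five concentrations. At the TGI there is no net growth.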

Experiments:
Assay in all cases: NCI-60 cell line screen, 48 h
786-0 renal = system: 786-0 renal
A498 renal = system: A498 renal
A549 NSCLC = system: A549 NSCLC
ACHN renal = system: ACHN renal
BT-549 breast = system: BT-549 breast
CAKI-1 renal = system: CAKI-1 renal
COLO 205 colon = system: COLO 205 colon
DU-145 prostate = system: DU-145 prostate
EKVX NSCLC = system: EKVX NSCLC
HCC-2998 colon = system: HCC-2998 colon
HCT-116 colon = system: HCT-116 colon
HCT-15 colon = system: HCT-15 colon
HL-60(TB) leukemia = system: HL-60(TB) leukemia
HOP-62 NSCLC = system: HOP-62 NSCLC
HOP-92 NSCLC = system: HOP-92 NSCLC
HS 578T breast = system: HS 578T breast
HT29 colon = system: HT29 colon
IGROV1 ovarian = system: IGROV1 ovarian
K-562 leukemia = system: K-562 leukemia
KM12 colon = system: KM12 colon
LOX IMVI melanoma = system: LOX IMVI melanoma
M14 melanoma = system: M14 melanoma
MCF7 breast = system: MCF7 breast
MDA-MB-231 breast = system: MDA-MB-231 breast
MDA-MB-435 = system: MDA-MB-435
MDA-N = system: MDA-N
MOLT-4 leukemia = system: MOLT-4 leukemia
NCI-H226 lung = system: NCI-H226 lung
NCI-H23 lung = system: NCI-H23 lung
NCI-H460 lung = system: NCI-H460 lung
NCI-H522 lung = system: NCI-H522 lung
NCI/ADR-RES ovarian = system: NCI/ADR-RES ovarian
OVCAR-3 ovarian = system: OVCAR-3 ovarian
OVCAR-4 ovarian = system: OVCAR-4 ovarian
OVCAR-5 ovarian = system: OVCAR-5 ovarian
OVCAR-8 ovarian = system: OVCAR-8 ovarian
PC-3 prostate = system: PC-3 prostate
RPMI-8226 leukemia = system: RPMI-8226 leukemia
RXF 393 renal = system: RXF 393 renal
SF-268 CNS = system: SF-268 CNS
SF-295 CNS = system: SF-295 CNS
SF-539 CNS = system: SF-539 CNS
SK-MEL-2 melanoma = system: SK-MEL-2 melanoma
SK-MEL-28 melanoma = system: SK-MEL-28 melanoma
SK-MEL-5 melanoma = system: SK-MEL-5 melanoma
SK-OV-3 ovarian = system: SK-OV-3 ovarian
SN12C renal = system: SN12C renal
SNB-19 CNS = system: SNB-19 CNS
SNB-75 CNS = system: SNB-75 CNS
SR leukemia = system: SR leukemia
SW-620 colon = system: SW-620 colon
T-47D breast = system: T-47D breast
TK-10 renal = system: TK-10 renal
U251 CNS = system: U251 CNS
UACC-257 melanoma = system: UACC-257 melanoma
UACC-62 melanoma = system: UACC-62 melanoma
UO-31 renal = system: UO-31 renal

Measured: TGI

CC(C)(N=NC(C)(C)C(=N)N)C(=N)N
> 100 µM: all assays above
